Measurements taken from patent US20230027929A1, “MrgprX2 Antagonists and Uses Thereof” (Dermira, Inc., priority 2019, published 2023).

Biological target: T1, hMrgpMRGPRX2 (Homo sapiens, UniProt Q96LB1)
T1 construct: expressed in transfected cells
T1 sequence (Q96LB1 1-330): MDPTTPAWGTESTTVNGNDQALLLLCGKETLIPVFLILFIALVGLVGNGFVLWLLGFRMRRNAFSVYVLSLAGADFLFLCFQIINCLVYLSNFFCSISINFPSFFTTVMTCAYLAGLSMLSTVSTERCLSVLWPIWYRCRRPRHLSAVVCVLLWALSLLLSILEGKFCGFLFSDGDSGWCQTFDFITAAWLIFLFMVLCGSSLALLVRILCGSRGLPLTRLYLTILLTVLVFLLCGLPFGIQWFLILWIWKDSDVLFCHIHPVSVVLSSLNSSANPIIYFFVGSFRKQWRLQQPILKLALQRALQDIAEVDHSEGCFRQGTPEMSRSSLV
Experiment: FLIPR intracellular calcium mobilization, antagonist activity in recombinant hMrgpMRGPRX2 expressing cells
Type: cell-based
Conditions: read-out: Human MrgprX2 Antagonist pIC50 (converted)
How it was run: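 Antagonist activity was read as inhibition of intracellular calcium mobilization (FLIPR) in recombinant cells expressing human MrgprX2. Potency was also checked in LAD-2 human mast cells with endogenous receptor, and orthologue activity in cells expressing mouse MrgprB2, mouse MrgprA1, and gerbil, Chinese hamster and cynomolgus orthologues.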

Compound | IC50 [nM]
CC1(C)C(C(=O)Nc2ccc(F)cn2)C1(C)C [Compound E211] | 1.26
COc1ccc(NC(=O)C2C(C)(C)C2(C)C)nc1 [Compound E212] | 20
Cc1cnc(NC(=O)C2C(C)(C)C2(C)C)cn1 [Compound E213] | 1580
CC1(C)C(C(=O)Nc2cnc(Cl)cn2)C1(C)C [Compound E214] | 100
COc1cnc(NC(=O)C2C(C)(C)C2(C)C)cn1 [Compound E215] | 200
CC1(C)C(C(=O)Nc2cc3c(cn2)OCCO3)C1(C)C [Compound E216] | 331
CC(C)C(=O)Nc1cnc(Oc2ccccc2)cn1 [Compound E217, 2-methyl-N-(5-phenoxypyrazin-2-yl)propanamide] | 7940
CC(C)C(=O)Nc1cnc(Oc2cc(F)cc(F)c2)cn1 [Compound E218] | 316
CC1(C)CC1C(=O)Nc1cnc(Oc2cc(F)cc(F)c2)cn1 (stereo not drawn) [Compound E219] | 25.1
CC1(C)C(C(=O)Nc2cnc(Oc3cc(F)cc(F)c3)cn2)C1(C)C [Compound E220] | 1.58
Cn1cc(Oc2cnc(NC(=O)C3C(C)(C)C3(C)C)cn2)cn1 [Compound E221] | 28.8
CC1(C)C(C(=O)Nc2cnc(Oc3cncc(F)c3)cn2)C1(C)C [Compound E222] | 12.6
CC1(C)C(C(=O)Nc2cnc(Oc3cc(F)cc(C#N)c3)cn2)C1(C)C [Compound E223] | 31.6
CC1(C)C(C(=O)Nc2cnc(Oc3ccc(F)c(F)c3)cn2)C1(C)C [Compound E224] | 3.98
CC1(C)CC1C(=O)Nc1cnc(Oc2ccc(F)c(F)c2)cn1 (stereo not drawn) [Compound E225] | 63.1
CC1(C)CC1C(=O)Nc1cnc(-c2cc(F)ccc2F)cn1 (stereo not drawn) [Compound E226, N-[5-(2,5-difluorophenyl)pyrazin-2-yl]-2,2-dimethyl-cyclopropanecarboxamide] | 34.7
CC1(C)C(C(=O)Nc2cnc(-c3cc(F)cc(F)c3)cn2)C1(C)C [Compound E227] | 33.9
CC1(C)CC1C(=O)Nc1cnc(-c2cc(F)cc(F)c2)cn1 (stereo not drawn) [Compound E228, N-[5-(3,5-difluorophenyl)pyrazin-2-yl]-2,2-dimethyl-cyclopropanecarboxamide] | 95.5
CC1(C)CC1C(=O)Nc1cnc(-c2cccc(F)c2F)cn1 (stereo not drawn) [Compound E229] | 6610
CC1(C)CC1C(=O)Nc1cnc(-c2cc(F)cc(C#N)c2)cn1 (stereo not drawn) [Compound E230] | 288
CC1(C)C(C(=O)Nc2cnc(N3CCCC3)cn2)C1(C)C [Compound E233, 2,2,3,3-tetramethyl-N-(5-pyrrolidin-1-ylpyrazin-2-yl)cyclopropanecarboxamide] | 331
CC(C)N(C)C(=O)Nc1cnc(Oc2cc(F)cc(F)c2)cn1 [Compound E234, 3-[5-(3,5-difluorophenoxy)pyrazin-2-yl]-1-isopropyl-1-methyl-urea] | 631

Compound | IC50 [nM]
CCN(C[C@H](C)O)C(=O)Nc1cnc(Oc2cc(F)cc(F)c2)cn1 [Compound E235] | 1410
CCN(C[C@@H](O)C(F)(F)F)C(=O)Nc1cnc(Oc2cc(F)cc(F)c2)cn1 [Compound E236] | 31.6
CCN(C[C@@H](O)C(F)(F)F)C(=O)Nc1cnc(-c2cc(F)ccc2F)cn1 [Compound E237] | 603
CN(C[C@@](C)(O)C(F)(F)F)C(=O)Nc1cnc(Oc2cc(F)cc(F)c2)cn1 [Compound E238] | 45.7
CCN(C[C@@H](O)C(F)(F)F)C(=O)Nc1cnc(Oc2cccc(F)c2F)cn1 [Compound E239] | 6.61
CCN(C[C@@H](O)C(F)(F)F)C(=O)Nc1cnc(Oc2ccc(F)c(F)c2)cn1 [Compound E240] | 110
CCN(C[C@@H](O)C(F)(F)F)C(=O)Nc1cnc(Oc2cc(F)ccc2F)cn1 [Compound E241] | 1.7
CCN(C[C@@H](O)C(F)(F)F)C(=O)Nc1cnc(Oc2cc(F)cc(F)c2)c(C)n1 [Compound E242] | 7410
CN(C[C@@H](O)C(F)(F)F)C(=O)Nc1cnc(Oc2cccc(F)c2F)cn1 [Compound E243] | 58.9
CCN(C[C@@H](O)C(F)(F)F)C(=O)Nc1cnc(Oc2c(F)cccc2F)cn1 [Compound E244] | 26.9
CN(C[C@@H](O)C(F)(F)F)C(=O)Nc1cnc(Oc2cc(F)ccc2F)cn1 [Compound E245] | 8.51
CCN(C[C@@H](O)C(F)(F)F)C(=O)Nc1cnc(Oc2cccc(C#N)c2F)cn1 [Compound E246] | 2140
CCN(C[C@@H](O)C(F)(F)F)C(=O)Nc1cnc(Oc2cccc(F)c2)cn1 [Compound E247] | 302
CCN(C[C@@H](O)C(F)(F)F)C(=O)Nc1cnc(Oc2ccccc2F)cn1 [Compound E248] | 8.51
CCN(C[C@@H](O)C(F)(F)F)C(=O)Nc1cnc(Oc2ccc(F)cc2F)cn1 [Compound E249] | 1.62
CN(C[C@@](C)(O)C(F)(F)F)C(=O)Nc1cnc(Oc2cc(F)ccc2F)cn1 [Compound E250] | 2.57
CCN(C[C@@H](O)C(F)(F)F)C(=O)Nc1cnc(Oc2cccc(F)c2C#N)cn1 [Compound E251] | 26.9
CCN(C[C@@H](O)C(F)(F)F)C(=O)Nc1cnc(Oc2ccc(F)cc2)cn1 [Compound E252] | 589
CN(C[C@@](C)(O)C(F)(F)F)C(=O)Nc1cnc(Oc2ccc(F)cc2F)cn1 [Compound E253] | 3.89
CCN(C[C@@H](O)C(F)(F)F)C(=O)Nc1cnc(Oc2ccc(F)cc2C#N)cn1 [Compound E254] | 30.9
CN(C[C@@H](O)C(F)(F)F)C(=O)Nc1cnc(Oc2ccc(F)cc2F)cn1 [Compound E255] | 13.2
CCN(C[C@@H](O)C(F)(F)F)C(=O)Nc1cnc(Oc2ccc(C#N)cc2F)cn1 [Compound E256] | 347

Compound | IC50 [nM]
CCN(C[C@@H](O)C(F)(F)F)C(=O)Nc1cnc(Oc2ccc(Cl)cc2F)cn1 [Compound E257] | 14.8
CCN(C[C@@](C)(O)C(F)(F)F)C(=O)Nc1cnc(Oc2ccc(F)cc2F)cn1 [Compound E258] | 1.55
CCN(C[C@@](C)(O)C(F)(F)F)C(=O)Nc1cnc(Oc2cc(F)ccc2F)cn1 [Compound E259] | 1.7
CCN(C[C@@H](O)C(F)(F)F)C(=O)Nc1cnc(Oc2ccc(F)cc2Cl)cn1 [Compound E260] | 4.07
CCN(C[C@@H](OC)C(F)(F)F)C(=O)Nc1cnc(Oc2ccc(F)cc2F)cn1 [Compound E261] | 380
CCN(C[C@@H](O)C(F)(F)F)C(=O)Nc1cnc(OCc2cccc(F)c2)cn1 [Compound E262] | 676
CCN(C[C@@H](O)C(F)(F)F)C(=O)Nc1cnc(Oc2ccc(C)cc2F)cn1 [Compound E263] | 24.5
CCN(C[C@@H](O)C(F)(F)F)C(=O)Nc1cnc(Oc2ccc(F)cc2C(F)(F)F)cn1 [Compound E264] | 295
CC(C)C(=O)Nc1ccc(Cc2ccccc2F)cn1 [Compound E268] | 501
CC1(C)C(C(=O)Nc2cc(C(=O)NCC(F)(F)F)ccn2)C1(C)C [Compound E269, 2-[(2,2,3,3-tetramethylcyclopropanecarbonyl)amino]-N-(2,2,2-trifluoroethyl)pyridine-4-carboxamide] | 3160
CC1(C)C(C(=O)Nc2ccc(CN3CCCC3)cn2)C1(C)C [Compound E270, 2,2,3,3-tetramethyl-N-[5-(pyrrolidin-1-ylmethyl)-2-pyridyl]cyclopropanecarboxamide] | 5250
CC1(C)C(C(=O)Nc2ccc(-c3ncon3)cn2)C1(C)C [Compound E271, 2,2,3,3-tetramethyl-N-[5-(1,2,4-oxadiazol-3-yl)-2-pyridyl]cyclopropanecarboxamide] | 31.6
Cc1nc(-c2ccc(NC(=O)C3C(C)(C)C3(C)C)nc2)no1 [Compound E272, 2,2,3,3-tetramethyl-N-[5-(5-methyl-1,2,4-oxadiazol-3-yl)-2-pyridyl]cyclopropanecarboxamide] | 8.51
CC1(C)C(C(=O)Nc2ccc(-c3cnco3)cn2)C1(C)C [Compound E273, 2,2,3,3-tetramethyl-N-(5-oxazol-5-yl-2-pyridyl)cyclopropanecarboxamide] | 661
CC1(C)C(C(=O)Nc2ccc(-c3ccno3)cn2)C1(C)C [Compound E274, N-(5-isoxazol-5-yl-2-pyridyl)-2,2,3,3-tetramethyl-cyclopropanecarboxamide] | 20.4
CC1(C)C(C(=O)Nc2ccc(-c3ccon3)cn2)C1(C)C [Compound E275, N-(5-isoxazol-3-yl-2-pyridyl)-2,2,3,3-tetramethyl-cyclopropanecarboxamide] | 12.3
CC(C)C(=O)Nc1ccc(Cc2cccc(F)c2)cn1 [Compound E276, N-[5-[(3-fluorophenyl)methyl]-2-pyridyl]-2-methyl-propanamide] | 501
NS(=O)(=O)N1CCC[C@@H]1C(=O)Nc1ccc(Oc2ccc(F)c(F)c2)cn1 [Compound E277, (2R)-N-[5-(3,4-difluorophenoxy)-2-pyridyl]-1-sulfamoyl-pyrrolidine-2-carboxamide] | 1910
CN1CCC[C@@H]1C(=O)Nc1ccc(Oc2ccc(F)c(F)c2)cn1 [Compound E278, (2R)-N-[5-(3,4-difluorophenoxy)-2-pyridyl]-1-methyl-pyrrolidine-2-carboxamide] | 2630
NS(=O)(=O)N1CCC[C@@H]1C(=O)Nc1ccc(Oc2cc(F)cc(F)c2)cn1 [Compound E279] | 240
NS(=O)(=O)N1CCC[C@@H]1C(=O)Nc1ccc(Oc2cc(F)ccc2F)cn1 [Compound E280] | 589
C[C@]1(C(=O)Nc2ccc(Oc3cc(F)ccc3F)cn2)CCCN1S(N)(=O)=O [Compound E281] | 81.3
